Results taken from patent publication US7247456B2, “Preparation of fucosylated oligosaccharides” (Neose Technologies, Inc., priority 1998, dated 2007).
Entries after “also recorded” stand apart in the source; their conditions may differ. Read-outs that look alike come from different tables or passages of the source.

Assays:
[1] = biological target: T1, E. coli K12 GDP-mannose dehydratase (GDP-mannose 4,6-dehydratase, GMD), recombinant wild type from pTGK:GMD (Escherichia coli, UniProt P0AC88); assay: Inhibition of GDP-mannose dehydratase (GMD) by GDP-fucose, reverse phase HPLC assay (FIG. 5); assay type: biochemical
T1 construct: made in house; host or cells: E. coli JM101 (plasmid pTGK:GMD), supernatant of French press lysate
Procedure: (§1) C. Assay of GDP-Mannose Dehydratase
(§2) To assay GDP-mannose dehydratase activity, a reverse phase HPLC assay was developed. […] GDP-mannose dehydratase activity was determined by reacting GDP-mannose dehydratase extract with 480 nmole of GDP-mannose in 50 mM Tris pH 7.5, 0.15 mM NADP^+ (NADP^+ is absolutely required for GDP-mannose dehydratase activity) in a 100 μl reaction volume. Twenty μl of the assay mix was injected over the C18 column.
(§3) By comparing the peak area of the no enzyme control, corresponding to 200 nmole, the decrease in the peak area of GDP-mannose was used to directly measure the activity of GDP-mannose dehydratase by the following formulae: (No enzyme peak area)−(enzyme peak area)=(Peak area of GDP-mannose consumed) 1. (Peak area of GDP-mannose consumed)/(No enzyme peak area)=% of 200 nmole GDP-mannose consumed. 2.
(§4) To control for any carryover loss upon HPLC injection, 10 nmole of CTP was added to the sample to be analyzed.
Since GDP-mannose dehydratase represents the first committed step in GDP-fucose biosynthesis it is possible that GDP-fucose is a feedback inhibitor of the enzyme. To determine if this is true, the standard assay was performed in the presence of increasing amounts of GDP-fucose. […]

GDP-mannose dehydratase [2] = biological target: T2, GDP-mannose dehydratase (Sus scrofa, UniProt F1RX12); details: cited from earlier work
T2 sequence (F1RX12 1-372): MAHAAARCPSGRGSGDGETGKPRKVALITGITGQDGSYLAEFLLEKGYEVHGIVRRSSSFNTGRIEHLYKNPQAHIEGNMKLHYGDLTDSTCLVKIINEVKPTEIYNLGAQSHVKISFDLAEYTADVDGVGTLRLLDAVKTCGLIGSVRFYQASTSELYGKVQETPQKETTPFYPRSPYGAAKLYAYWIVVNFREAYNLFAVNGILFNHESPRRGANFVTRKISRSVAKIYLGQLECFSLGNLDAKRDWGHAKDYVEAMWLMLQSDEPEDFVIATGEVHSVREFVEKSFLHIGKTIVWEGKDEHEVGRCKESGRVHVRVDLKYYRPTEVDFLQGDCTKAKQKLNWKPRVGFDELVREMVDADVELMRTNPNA

GDP-mannose dehydratase [3] = details: cited from earlier work
GDP-mannose dehydratase [4] = biological target: T3, GDP-mannose dehydratase (Escherichia coli, UniProt P0AC88); assay: GDP-mannose dehydratase reverse phase HPLC activity assay; assay type: biochemical, E. coli; details: for effect on GDP-mannose dehydratase activity: concentrations ranging from 1-20 mM
T3 construct: made in house; host or cells: E. coli JM101 (plasmid pTGK:GMD), French-press lysate supernatant
Procedure: (§5) To assay GDP-mannose dehydratase activity, a reverse phase HPLC assay was developed. […] […] Twenty μl of the assay mix was injected over the C18 column.
as §3, §4

YEF B = YEF B (Escherichia coli, UniProt P32055, E255D/L256V); details: for YEF B Activity %: none = 100; for effect on YEF B activity: varying concentrations of metal ion
YEF B, sequence (P32055 whole entry E255D/L256V): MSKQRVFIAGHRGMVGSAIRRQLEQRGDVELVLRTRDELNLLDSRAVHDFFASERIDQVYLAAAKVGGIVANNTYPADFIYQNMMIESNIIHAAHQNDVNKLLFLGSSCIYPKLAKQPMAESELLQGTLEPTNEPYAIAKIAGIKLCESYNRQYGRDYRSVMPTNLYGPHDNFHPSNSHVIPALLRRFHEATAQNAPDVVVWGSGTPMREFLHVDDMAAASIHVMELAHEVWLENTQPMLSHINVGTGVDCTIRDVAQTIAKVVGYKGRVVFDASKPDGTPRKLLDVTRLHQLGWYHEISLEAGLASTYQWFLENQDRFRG
Procedure: To assay YEF B activity, a reverse phase HPLC assay was developed. An Aquesil C18 reverse phase column was set up in-line on a Beckman 126 solvent monitor. The column was eluted isocratically with 0.5M KH2PO4 over twenty minutes with a flow rate of 1 ml/min. A photodiode array detector was employed to monitor the elution scanning the 210-300 nm wavelength range.
A coupled assay was employed to assay YEF B activity. This was required since its substrate, GDP-4-keto-6-deoxymannose, is unstable and not commercially available. Twenty mUnit of GDP-mannose dehydratase was allowed to react with 480 nMole of GDP-mannose for 20 minutes under standard assay conditions as previously. […] The reaction was allowed to proceed for ten minutes at which point the reaction was stopped by freezing on dry ice. After thawing 10 μl aliquots were analyzed by reverse phase HPLC analysis. The amount of GDP fucose formed was calculated by analyzing a separate assay mix in the absence of GDP-mannose dehydratase to yield a 100% value for the absorption peak of GDP-mannose. […] to yield percentage of GDP-fucose formed. (% GDP-fucose)(nMole GDP-mannose in reaction)=nMole GDP-fucose formed.
The assay pH was varied from 6.5 to 8.0 using MES and Tris as buffers. The standard assay mix contained 20 mUnit GDP-mannose dehydratase, […] GDP-mannose, […], 10 mUnit glucose dehydrogenase (to recycle NADPH utilized by YEF B), 50 mM buffer at the appropriate pH and YEF B at appropriate dilution. The reaction was allowed to proceed for 15 minutes at 37° C. and immediately frozen on dry ice to stop the reaction. Ten μl aliquots were removed after thawing and analyzed by reverse phase HPLC.

[5] = biological target: T4, fucosyltransferase V (FT V) (Homo sapiens, UniProt Q11128); assay: Inhibition of fucosyltransferase V; assay type: biochemical; details: compared with GDP
T4 construct: printed for the preparative synthesis
T4 sequence (Q11128 1-374): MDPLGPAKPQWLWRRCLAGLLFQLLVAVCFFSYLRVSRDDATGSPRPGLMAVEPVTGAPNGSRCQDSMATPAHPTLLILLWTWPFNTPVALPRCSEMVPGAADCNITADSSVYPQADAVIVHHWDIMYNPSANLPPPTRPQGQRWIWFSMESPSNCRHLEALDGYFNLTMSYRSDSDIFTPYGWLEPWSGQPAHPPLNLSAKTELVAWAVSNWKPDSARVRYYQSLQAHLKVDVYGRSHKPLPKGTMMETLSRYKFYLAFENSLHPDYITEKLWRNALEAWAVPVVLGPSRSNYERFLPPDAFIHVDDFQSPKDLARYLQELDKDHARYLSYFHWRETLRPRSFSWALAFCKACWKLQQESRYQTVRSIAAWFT

fucosyltransferase V = biological target: T5, fucosyltransferase V (Homo sapiens, UniProt Q11128); details: literature statement; cited from earlier work
T5 sequence (Q11128 1-374): T4 sequence (Q11128 1-374)

fucosyltransferases = details: cited from earlier work
GDP-mannose dehydratase [6] = biological target: T6, GDP-mannose dehydratase (Escherichia coli, UniProt P0AC88); assay: GDP-mannose dehydratase reverse phase HPLC activity assay; assay type: biochemical, E. coli; details: 10 mUnit alkaline phosphatase included in the assay
T6 construct: made in house; host or cells: E. coli JM101 (plasmid pTGK:GMD), French-press lysate supernatant
T6 sequence (P0AC88 whole entry, looked up): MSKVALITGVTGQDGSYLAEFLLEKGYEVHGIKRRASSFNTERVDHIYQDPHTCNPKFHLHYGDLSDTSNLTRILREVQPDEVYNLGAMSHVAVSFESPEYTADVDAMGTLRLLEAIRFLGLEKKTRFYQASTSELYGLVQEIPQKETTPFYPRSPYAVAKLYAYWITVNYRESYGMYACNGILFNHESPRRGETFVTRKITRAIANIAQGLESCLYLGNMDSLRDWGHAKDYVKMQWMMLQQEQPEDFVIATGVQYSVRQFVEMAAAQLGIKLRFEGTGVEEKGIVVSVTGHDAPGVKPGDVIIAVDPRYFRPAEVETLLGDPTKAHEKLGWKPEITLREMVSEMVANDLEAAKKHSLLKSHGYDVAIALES
Procedure: as §5, §3, §4

[7] = biological target: T1, E. coli K12 GDP-mannose dehydratase (GDP-mannose 4,6-dehydratase, GMD), recombinant wild type from pTGK:GMD; assay: Cofactor (NADP+) dependence of GDP-mannose dehydratase (Table 5); assay type: biochemical
Procedure: as §1, §2, §3, §4

[8] = biological target: T1, E. coli K12 GDP-mannose dehydratase (GDP-mannose 4,6-dehydratase, GMD), recombinant wild type from pTGK:GMD; assay: Linearity of the GDP-mannose dehydratase assay with time (product inhibition); assay type: biochemical; details: linear up to 30 minutes, up to 90% of substrate consumed
Procedure: as §1, §2, §3
Samples were thawed and immediately injected over an aquasil reverse phase HPLC column.

For `C[C@@H]1O[C@H](OP(=O)(O)OP(=O)(O)OC[C@H]2O[C@@H](n3cnc4c(=O)[nH]c(N)nc43)[C@H](O)[C@@H]2O)[C@@H](O)[C@H](O)[C@@H]1O` [GDP-fucose], the IC50 ([1]; restated for the 0.2 kG scale production, quantity not given, read-out: inhibitor concentration ("40 μM inhibitor", see FIG. 5)) is given as 40 µM, the IC50 ([1]; standard assay: 480 nmole GDP-mannose, 50 mM Tris pH 7.5, 0.15 mM NADP+, 100 μl, increasing amounts of GDP-fucose, read-out: IC50) is given as about 40 µM and the “catalytic activity of GDP-mannose dehydratase remaining” value (GDP-mannose dehydratase [2]; at 50 μM GDP-fucose) is given as 10%. For the same compound, the “remaining catalytic activity of GDP-mannose dehydratase” value (GDP-mannose dehydratase [3]; at 50 μM GDP-fucose) was 10% and the “inhibition of GDP-mannose dehydratase” value (GDP-mannose dehydratase [3]) was “strongly inhibited”.

For `[Cl][Mn][Cl]` [MnCl2], the “% GDP-mannose Dehydratase Activity mUnit/ml” value (GDP-mannose dehydratase [4]; 1 mM metal ion) was 580 mUnit/ml, the “% GDP-mannose Dehydratase Activity mUnit/ml” value (GDP-mannose dehydratase [4]; 10 mM metal ion) was 570 mUnit/ml and the “% GDP-mannose Dehydratase Activity mUnit/ml” value (GDP-mannose dehydratase [4]; 20 mM metal ion) was 620 mUnit/ml. The “effect on GDP-mannose dehydratase activity” value (GDP-mannose dehydratase [4]) was “essentially no effect”, the “YEF B Activity %” value (YEF B; 1 mM metal ion) was 60% and the “YEF B Activity %” value (YEF B; 10 mM metal ion) was 25%. The “effect on YEF B activity” value (YEF B) was “severely inhibited in a dose dependent manner”.

With `Nc1nc2c(ncn2[C@@H]2O[C@H](COP(=O)(O)OP(=O)(O)OP(=O)(O)O)[C@@H](O)[C@H]2O)c(=O)[nH]1` [GTP] the “inhibitory potency relative to GDP (fold less potent)” value [5] was 10 ×.

For `Nc1nc2c(ncn2[C@@H]2O[C@H](COP(=O)(O)OP(=O)(O)O)[C@@H](O)[C@H]2O)c(=O)[nH]1` [GDP], the inhibition of fucosyltransferases (fucosyltransferase V) is listed as “inhibit; also recorded: potent inhibitor”, the “inhibition of GDP-mannose dehydratase” value (GDP-mannose dehydratase [2]; literature statement) is listed as “inhibit” and the “inhibition of GDP-mannose dehydratase” value (GDP-mannose dehydratase [3]) is listed as “known to inhibit”. For the same compound, the inhibition of fucosyltransferases (fucosyltransferases) was “known to inhibit”.

With Alkaline Phosphatase the “% GDP-mannose dehydratase activity” value (GDP-mannose dehydratase [6]) was “not detected” and the “% GDP-mannose dehydratase activity” value (GDP-mannose dehydratase [6]; listed as alkaline phosphatase) was “severely attenuated”.

With `[Cl-].[Cl-].[Mg+2]` [MgCl2] the “% GDP-mannose Dehydratase Activity mUnit/ml” value (GDP-mannose dehydratase [4]; 1 mM metal ion) was 560 mUnit/ml, the “% GDP-mannose Dehydratase Activity mUnit/ml” value (GDP-mannose dehydratase [4]; 10 mM metal ion) was 610 mUnit/ml and the “% GDP-mannose Dehydratase Activity mUnit/ml” value (GDP-mannose dehydratase [4]; 20 mM metal ion) was 590 mUnit/ml. The “effect on GDP-mannose dehydratase activity” value (GDP-mannose dehydratase [4]) was “essentially no effect”, the “YEF B Activity %” value (YEF B; 1 mM metal ion) was 110% and the “YEF B Activity %” value (YEF B; 10 mM metal ion) was 110%. The “effect on YEF B activity” value (YEF B) was “somewhat stimulatory”.

For `C[C@H]1O[C@H](OP(=O)(O)OP(=O)(O)OC[C@H]2O[C@@H](n3cnc4c(=O)[nH]c(N)nc43)[C@H](O)[C@@H]2O)[C@@H](O)[C@@H](O)C1=O` [GDP-4-keto-6-deoxymannose], the “inhibition of GDP-mannose dehydratase by its product” value (GDP-mannose dehydratase [4]; assay linear up to 90% of substrate consumed) was “does not inhibit the enzyme”.

With `NC(=O)c1ccc[n+]([C@@H]2O[C@H](COP(=O)(O)OP(=O)(O)OC[C@H]3O[C@@H](n4cnc5c(N)ncnc54)[C@H](OP(=O)(O)O)[C@@H]3O)[C@@H](O)[C@H]2O)c1` [NADP] the “% GDP-mannose dehydratase activity” value (GDP-mannose dehydratase [4]; 0.15 mM cofactor) was 100% and the “% GDP-mannose dehydratase activity” value (GDP-mannose dehydratase [4]; 1 mM cofactor) was 100%.

In the case of `NC(=O)c1ccc[n+]([C@@H]2O[C@H](COP(=O)(O)OP(=O)(O)OC[C@H]3O[C@@H](n4cnc5c(N)ncnc54)[C@H](O)[C@@H]3O)[C@@H](O)[C@H]2O)c1` [NAD], the “% GDP-mannose dehydratase activity” value (GDP-mannose dehydratase [4]; 1 mM cofactor) is reported as “not detected”.

Compound `NC(=O)c1ccc[n+]([C@@H]2O[C@H](COP(=O)(O)OP(=O)(O)OC[C@H]3O[C@@H](n4cnc5c(N)ncnc54)[C@H](OP(=O)(O)O)[C@@H]3O)[C@@H](O)[C@H]2O)c1` [NADP, NADP^+] has an activity at 1000 µM ([7]; cofactor at 1 mM) of 100%.

For `C[C@H]1O[C@H](OP(=O)(O)OP(=O)(O)OC[C@H]2O[C@@H](n3cnc4c(=O)[nH]c(N)nc43)[C@H](O)[C@@H]2O)[C@@H](O)[C@@H](O)C1=O` [GDP-4-keto-6 deoxymannose, GDP-4-keto-6-deoxymannose], the “inhibition of GDP-mannose dehydratase by the product” value [8] was “does not inhibit the enzyme”.

With `NC(=O)c1ccc[n+]([C@@H]2O[C@H](COP(=O)(O)OP(=O)(O)OC[C@H]3O[C@@H](n4cnc5c(N)ncnc54)[C@H](O)[C@@H]3O)[C@@H](O)[C@H]2O)c1` [NAD, NAD^+] the “% GDP-mannose dehydratase activity” value ([7]; cofactor at 1 mM) was “not detected” and the “substitution for NADP+ as cofactor” value ([7]; in place of NADP+) was “will not substitute for NADP^+”.
